Experiments:
[1] = tested on: IgG secreted into culture supernatant by BALB/c mouse spleen cells; test: Determination of IgG produced in in vitro culture of spleen cells (adoptive secondary immune response against DNP-As), ELISA; format: cell-based; conditions: 96 h, spleen cells 5×10^6 cells/ml, 4 days, 37° C.; for inhibition at 10 µg/mL: 10 μg/ml
Method: (§1) The antiallergic activities of the 5H-pyrazolo[4,3-a]quinolizin-5-one compounds of formula (I) are also confirmed by inhibition of the rat homologous passive cutaneous anaphylaxis (hereinafter referred to as PCA) reaction.
(§2) Determination of Igs produced in in vitro culture
(§3) BALB/c mice were immunized intraperitoneally with 5 μg of DNP-As adsorbed on 4 mg aluminum hydroxide gel. Four weeks after the immunization, the spleens were excised from the mice and 5×10^7 spleen cells were transferred intravenously into the recipient mice which had been exposed to 600 rad of X-ray irradiation. Immediately after the cell transfer, the recipients were then immunized intraperitoneally with 5 μg of DNP-As adsorbed on 4 mg aluminum hydroxide gel to induce adoptive secondary immune response. Further 4 weeks after the immunization of recipients, the spleens were excised from them and the spleen cell suspensions containing 5×10^6 cells/ml were cultured with or without a compound to be tested in 96-well micro-titer plates at 37° C. for 4 days. IgE and IgG secreted into the culture supernatant was each determined correspondingly by enzyme-linked immunosolvent assay and the inhibitory effect was calculated according to the following equation. [formula]

[2] = tested on: IgE secreted into culture supernatant by BALB/c mouse spleen cells; test: Determination of IgE produced in in vitro culture of spleen cells (adoptive secondary immune response against DNP-As), ELISA; format: cell-based; conditions: 96 h, spleen cells 5×10^6 cells/ml, 4 days, 37° C.; for inhibition at 10 µg/mL: 10 μg/ml
Method: as §1, §2, §3

Structure (SMILES): CCc1nn(C(C)=O)c2c(C#N)c(=O)n3ccccc3c12 [S-31]
- inhibition at 20 µg/mL ([1]; 20 μg/ml): 33%
- inhibition at 20 µg/mL ([2]; 20 μg/ml): 75%

Structure (SMILES): CC(=O)n1nc(CC(C)C)c2c1c(C#N)c(=O)n1ccccc21 [S-38]
- inhibition at 10 µg/mL [1]: 4%
- inhibition at 10 µg/mL [2]: 40%

Structure (SMILES): CCCc1nn(C(C)=O)c2c(C#N)c(=O)n3ccccc3c12 [S-26, 3-Acetyl-4-cyano-1-propyl-5H-pyrazolo[4,3-a]quinolizin-5-one]
- inhibition at 10 µg/mL [1]: 18%
- inhibition at 10 µg/mL [2]: 55%
